# Laboratory results as given in ChEMBL document CHEMBL1833963, “Synthesis of new 3,20-bispolyaminosteroid squalamine analogues and evaluation of their antimicrobial activities” (2011).
# Calls of active or inactive are those of the source. The calls are words filed in the database; no cut-off is given here.
# Experiments:
# [1] = test system: Staphylococcus aureus; assay: Antibacterial activity against Staphylococcus aureus after 24 hrs by microbroth dilution method; assay type: functional
# [2] = test system: Staphylococcus aureus; assay: Antibacterial activity against oxacillin-sensitive Staphylococcus aureus after 24 hrs by microbroth dilution method; assay type: functional
# [3] = test system: Staphylococcus aureus; assay: Antibacterial activity against oxacillin-resistant Staphylococcus aureus after 24 hrs by microbroth dilution method; assay type: functional
# [4] = test system: Escherichia coli; assay: Antibacterial activity against Escherichia coli after 24 hrs by microbroth dilution method; assay type: functional
# [5] = test system: Pseudomonas aeruginosa; assay: Antibacterial activity against Pseudomonas aeruginosa after 24 hrs by microbroth dilution method; assay type: functional
# [6] = test system: Pseudomonas aeruginosa; assay: Antibacterial activity against colistin-sensitive Pseudomonas aeruginosa after 24 hrs by microbroth dilution method; assay type: functional
# [7] = test system: Inquilinus limosus; assay: Antibacterial activity against colistin-resistant Inquilinus limosus after 24 hrs by microbroth dilution method; assay type: functional
# [8] = test system: Burkholderia cepacia; assay: Antibacterial activity against Colistin resistant Burkholderia cepacia after 24 hrs by microbroth dilution method; assay type: functional
# [9] = test system: Escherichia coli; assay: Antibacterial activity against Escherichia coli ATCC 25922 after 24 hrs by microbroth dilution method in absence of Mg2+; assay type: functional
# [10] = test system: Staphylococcus aureus; assay: Antibacterial activity against Staphylococcus aureus ATCC 25923 after 24 hrs by microbroth dilution method in absence of Mg2+; assay type: functional
# [11] = test system: Escherichia coli; assay: Antibacterial activity against Escherichia coli ATCC 25922 after 24 hrs by microbroth dilution method in presence of Mg2+; assay type: functional
# [12] = test system: Staphylococcus aureus; assay: Antibacterial activity against Staphylococcus aureus ATCC 25923 after 24 hrs by microbroth dilution method in presence of Mg2+; assay type: functional
# [13] = test system: Escherichia coli; assay: Ratio of MIC for Escherichia coli ATCC 25922 in presence of Mg2+ to MIC for Escherichia coli ATCC 25922 in absence of Mg2+; assay type: functional
# [14] = test system: Staphylococcus aureus; assay: Bactericidal activity against Staphylococcus aureus DSM 799 assessed as log decrease in bacterial count at MIC after 1 hr by time-kill assay; assay type: functional
# [15] = test system: Pseudomonas aeruginosa; assay: Bactericidal activity against Pseudomonas aeruginosa DSM 939 assessed as complete killing at MIC after 2 hrs by time-kill assay; assay type: functional, organism-based
# [16] = test system: Staphylococcus aureus; assay: Antibacterial activity against Staphylococcus aureus assessed as induction of bacterial membrane depolarization at MIC measured up to 21 mins by fluorescence assay relative to squalamine; assay type: functional
# [17] = test system: Escherichia coli; assay: Antibacterial activity against Escherichia coli assessed as induction of ATP efflux at 4 times MIC after 5 mins by luminometry analysis; assay type: functional
# [18] = test system: Escherichia coli; assay: Antibacterial activity against Escherichia coli assessed as induction of bacterial membrane depolarization at MIC measured up to 21 mins by fluorescence assay relative to squalamine; assay type: functional
# [19] = test system: Staphylococcus aureus; assay: Antibacterial activity against Staphylococcus aureus assessed as induction of ATP efflux at 4 times MIC after 5 mins by luminometry; assay type: functional
# [20] = test system: Escherichia coli; assay: Antibacterial activity against Escherichia coli assessed as induction of bacterial membrane depolarization at MIC measured up to 21 mins by fluorescence assay; assay type: functional, organism-based
# [21] = test system: Staphylococcus aureus; assay: Antibacterial activity against Staphylococcus aureus assessed as induction of bacterial membrane depolarization at MIC measured up to 21 mins by fluorescence assay; assay type: functional, organism-based
# [22] = test system: Staphylococcus aureus; assay: Antibacterial activity against Staphylococcus aureus assessed as induction of bacterial membrane depolarization at MIC after 3 mins by fluorescence assay; assay type: functional
# [23] = test system: Staphylococcus aureus; assay: Bactericidal activity against Staphylococcus aureus DSM 799 assessed as log decrease in bacterial count at MIC after 2 hrs by time-kill assay; assay type: functional
Compound,MIC [1] [µg/mL],MIC [2] [µg/mL],MIC [3] [µg/mL],MIC [4] [µg/mL],MIC [5] [µg/mL],MIC [6] [µg/mL],MIC [7] [µg/mL],MIC [8] [µg/mL],also measured
C[C@@H](NCCCCCCCCCCCCN)[C@H]1CC[C@H]2[C@@H]3CCC4=C[C@@H](NCCCCCCCCCCCCN)CC[C@]4(C)[C@H]3CC[C@]12C,10,5,10,20,40,40,20,> 40,–
CN[C@@H]1C=C2CC[C@H]3[C@@H]4CC[C@H]([C@@H](C)NC)[C@@]4(C)CC[C@@H]3[C@@]2(C)CC1,40,20,20,> 40,> 40,> 40,> 40,> 40,–
C[C@@H](NCCCCCCCN)[C@H]1CC[C@H]2[C@@H]3CCC4=C[C@@H](NCCCCCCCN)CC[C@]4(C)[C@H]3CC[C@]12C,2.5,2.5,5,5,10,10,20,> 40,–
C[C@@H](NCCCCCN)[C@H]1CC[C@H]2[C@@H]3CCC4=C[C@@H](NCCCCCN)CC[C@]4(C)[C@H]3CC[C@]12C,5,5,10,10,10,20,40,> 40,–
C[C@@H](NCCCCCCCCCN)[C@H]1CC[C@H]2[C@@H]3CCC4=C[C@@H](NCCCCCCCCCN)CC[C@]4(C)[C@H]3CC[C@]12C,5,5,5,20,40,40,20,> 40,–
C[C@@H](NCCCCCCCCN)[C@H]1CC[C@H]2[C@@H]3CCC4=C[C@@H](NCCCCCCCCN)CC[C@]4(C)[C@H]3CC[C@]12C,2.5,2.5,5,5,2.5,2.5,10,> 40,"MIC ([9]; ATCC 25922, 24 h): 2.5 µg/mL; MIC ([10]; ATCC 25923, 24 h): 2.5 µg/mL; MIC ([11]; ATCC 25922, 24 h): 10 µg/mL; MIC ([12]; ATCC 25923, 24 h): 5 µg/mL; Ratio [13]: 4; FC [14]: 5; Activity [15]: Active; fold change (FC) [16]: 4; Activity [17]: <35%; fold change (FC) [18]: 4"
COLISTIMETHATE SODIUM,–,–,–,2.5,5,5,> 100,> 40,MIC [9]: 0.5 µg/mL; MIC [10]: > 128 µg/mL; MIC [11]: 16 µg/mL; MIC [12]: > 128 µg/mL; Ratio [13]: 4; Activity [17]: 4%; Activity [19]: inactive
C[C@@H](NCCCCN)[C@H]1CC[C@H]2[C@@H]3CCC4=C[C@@H](NCCCCN)CC[C@]4(C)[C@H]3CC[C@]12C,5,10,6,10,20,20,40,> 40,–
CC(C)[C@@H](CC[C@@H](C)[C@H]1CC[C@H]2[C@@H]3[C@H](O)C[C@H]4C[C@@H](NCCCNCCCCN)CC[C@]4(C)[C@H]3CC[C@]12C)OS(=O)(=O)O [SQUALAMINE],1.25,0.3,1.25,5,2.5,5,5,> 40,"MIC ([9]; ATCC 25922, 24 h): 2.5 µg/mL; MIC ([10]; ATCC 25923, 24 h): 1.25 µg/mL; MIC ([11]; ATCC 25922, 24 h): 32 µg/mL; MIC ([12]; ATCC 25923, 24 h): 1.25 µg/mL; Ratio [13]: 4; Activity [17]: <35%; Activity [19]: 100%; Activity [20]: inactive; Activity [21]: Active; Activity [22]: 80%"
C[C@@H](NCCN)[C@H]1CC[C@H]2[C@@H]3CCC4=C[C@@H](NCCN)CC[C@]4(C)[C@H]3CC[C@]12C,20,20,10,20,20,20,> 40,> 40,–
C[C@@H](N)[C@H]1CC[C@H]2[C@@H]3CCC4=C[C@@H](N)CC[C@]4(C)[C@H]3CC[C@]12C,40,> 40,40,> 40,> 40,> 40,> 40,> 40,–
NC[C@H]1O[C@H](O[C@H]2[C@H](O)[C@@H](O[C@H]3O[C@H](CO)[C@@H](O)[C@H](N)[C@H]3O)[C@H](N)C[C@@H]2N)[C@H](N)C[C@@H]1O [TOBRAMYCIN],1.25,1.25,–,2.5,5,5,> 40,> 40,"MIC ([9]; ATCC 25922, 24 h): 2 µg/mL; MIC ([10]; ATCC 25923, 24 h): 1 µg/mL; MIC ([11]; ATCC 25922, 24 h): 1 µg/mL; MIC ([12]; ATCC 25923, 24 h): 2 µg/mL; FC [23]: 5"
C[C@@H](NCCCCCCN)[C@H]1CC[C@H]2[C@@H]3CCC4=C[C@@H](NCCCCCCN)CC[C@]4(C)[C@H]3CC[C@]12C,2.5,5,5,5,10,20,20,> 40,–
C[C@@H](NCCCCCCCCCCN)[C@H]1CC[C@H]2[C@@H]3CCC4=C[C@@H](NCCCCCCCCCCN)CC[C@]4(C)[C@H]3CC[C@]12C,10,5,5,20,40,40,20,> 40,–
C[C@@H](NCCCN)[C@H]1CC[C@H]2[C@@H]3CCC4=C[C@@H](NCCCN)CC[C@]4(C)[C@H]3CC[C@]12C,10,10,5,10,10,20,20,> 40,–
